Assay results published in patent US6369104B1, “Biocidal compositions and use thereof containing a synergistic mixture of glutaraldehyde and 2,2-dibromo-3 nitrilo propionamide” (Hercules Incorporated, priority 2000, dated 2002).

Test system: Klebsiella pneumoniae
Test: Checkerboard growth inhibition (turbidity at 590 nm) with Kull synergism index
Type: cell-based
Procedure: Glutaraldehyde and DBNPA were added in varying ratios over a wide range of concentrations to a liquid nutrient medium which was subsequently inoculated with a standard volume of a suspension of the facultative bacterium Klebsiella pneumoniae. Growth was measured by turbidity at 590 nm in a microplate spectrophotometer. The effect of the biocide chemicals, alone and in combination, is to reduce the growth (turbidity) of the bacterial cells as compared to controls not treated with the chemicals. Additions of the biocides, alone and in varying combinations and concentrations, were made according to the accepted “checkerboard” technique described by M. T. Kelly and J. Matsen, Antimicrobial Agents and Chemotherapy. 9:440 (1976). Growth was measured after overnight incubation at 30° C. Each unique sample concentration was tested in triplicate. The percent reduction of each treated sample was calculated from the relationship: [formula]
Plotting the % reduction of turbidity against the concentration of each biocide acting alone results in a dose-response curve, from which the biocide dose necessary to achieve a given % reduction can be interpolated.
Synergism was determined by the method of calculation described by F. C. Kull, P. C. Eisman, H. D. Sylwestrowicz and R. L. Mayer, Applied Microbiology, 9:538 (1961) using the relationship:
(QA/Qa)+(QB/Qb)=Synergism Index (SI)
Qa=quantity of compound A, acting alone, producing an end point
Qb=quantity of compound B, acting alone, producing an end point
QA=quantity of compound A, in mixture, producing an end point
QB=quantity of compound B, in mixture, producing an end point
The end point used in the calculations is the % reduction caused by each mixture of A and B. QA and QB are the individual concentrations in the A/B mixture causing a given % reduction. QA and QB are determined by interpolation from the respective dose-response curves of A and B as those concentrations of A and B acting alone which produce the same % reduction as each specific mixture produced.
Dose-response curves for each active acting alone were determined by linear regression analysis of dose-response data. Data were fitted to a curve represented by the equation shown with each data set. After linearizing the data, the contributions of each biocide component in the biocide mixtures to the inhibition of turbidity were determined by a linear regression method with the dose-response curve of the respective biocide. If, for example, quantities of QA and QB are sufficient to give a 50% reduction in turbidity, Qa and Qb are those quantities of A and B acting alone respectively, found to give 50% reduction in turbidity. A synergism index (SI) is calculated for each combination of A and B.
Where the SI is less than 1, synergism exists. Where the SI=1, additivity exists. Where SI is greater than 1, antagonism exists.
The data in the following tables come from treating Klebsiella pneumoniae, a common nuisance bacterial type found in industrial cooling waters and in pulping and paper making systems, with varying ratios and concentrations of glutaraldehyde and DBNPA. Shown for each combination is the % reduction of turbidity (%I), the calculated SI, and the weight ratio of glutaraldehyde and DBNPA.

O=CCCCC=O [Glutaraldehyde, glutaraldehyde]
% I (% reduction of turbidity) (Table I, Glutaraldehyde 9.4 ppm alone): 0%
% I (% reduction of turbidity) (Table I, Glutaraldehyde 18.8 ppm alone): 0%
% I (% reduction of turbidity) (Table I, Glutaraldehyde 37.5 ppm alone): 6%
% I (% reduction of turbidity) (Table I, Glutaraldehyde 75 ppm alone): 22%
% I (% reduction of turbidity) (Table I, Glutaraldehyde 150 ppm alone): 53%
% I (% reduction of turbidity) (Table I, Glutaraldehyde 300 ppm alone): 100%
% I (% reduction of turbidity) (Table II, Glutaraldehyde 9.4 ppm alone): 2%
% I (% reduction of turbidity) (Table II, Glutaraldehyde 18.8 ppm alone): 6%
% I (% reduction of turbidity) (Table II, Glutaraldehyde 37.5 ppm alone): 13%
% I (% reduction of turbidity) (Table II, Glutaraldehyde 75 ppm alone): 28%
% I (% reduction of turbidity) (Table II, Glutaraldehyde 150 ppm alone): 58%
% I (% reduction of turbidity) (Table II, Glutaraldehyde 300 ppm alone): 100%

N#CC(Br)(Br)C(N)=O [DBNPA, 2,2-dibromo-3-nitrilopropionamide]
% I (% reduction of turbidity) (Table I, DBNPA 3.2 ppm alone): 60%
% I (% reduction of turbidity) (Table I, DBNPA 6.3 ppm alone): 62%
% I (% reduction of turbidity) (Table I, DBNPA 12.5 ppm alone): 65%
% I (% reduction of turbidity) (Table I, DBNPA 25 ppm alone): 72%
% I (% reduction of turbidity) (Table I, DBNPA 50 ppm alone): 86%
% I (% reduction of turbidity) (Table I, DBNPA 100 ppm alone): 100%
% I (% reduction of turbidity) (Table II, DBNPA 3.2 ppm alone): 84%
% I (% reduction of turbidity) (Table II, DBNPA 6.3 ppm alone): 85%
% I (% reduction of turbidity) (Table II, DBNPA 12.5 ppm alone): 87%
% I (% reduction of turbidity) (Table II, DBNPA 25 ppm alone): 89%
% I (% reduction of turbidity) (Table II, DBNPA 50 ppm alone): 95%
% I (% reduction of turbidity) (Table II, DBNPA 100 ppm alone): 100%
